The values that follow come from ChEMBL document CHEMBL3351757, “Design and synthesis of novel and highly-active pan-histone deacetylase (pan-HDAC) inhibitors” (Bioorg Med Chem, 2014).

Test [1] concerns the target T1, Histone deacetylase (Rattus norvegicus) (UniProt Q6P6W3+Q99P99+Q99P96+Q4QQW4+Q99P97+Q5RJZ2+B1WBY8). Particulars: at 0.1 µM.
Description: Inhibition of rat liver HDAC at 0.1 uM pre-incubated for 15 mins before Boc-Lys(Ac)-AMC substrate addition and measured after 30 mins by fluorometry
In test [2] the target is T1, Histone deacetylase (Rattus norvegicus). Particulars: at 10 µM.
Description: Inhibition of rat liver HDAC at 10 uM pre-incubated for 15 mins before Boc-Lys(Ac)-AMC substrate addition and measured after 30 mins by fluorometry

For the molecule `O=C(CCCCCOc1ccc2oc(=O)ccc2c1)NO`, the inhibition (commonly the drop in the measured response relative to a control, in per cent) in test [1] stood at 12%; in test [2] it was 91%.
As for `O=C(CCCCCCS(=O)(=O)Nc1ccc2c(c1)CCC(=O)N2)NO`, the inhibition in test [1] is 11%; in test [2], 91%.
As to `COC1=Nc2ccc(NC(=O)CCCCCCC(=O)NO)cc2C(C)(C)C1`, the figures for the inhibition in test [1] and in test [2] were 52% and 99%, respectively.
For `CC1(C)CC(=O)Nc2cc(OCCCCCC(=O)NO)ccc21` the same measures were 11% and 91%.
Turning to `O=C(CCCCCOc1ccc2ccc(=O)[nH]c2c1)NO`, the inhibition in test [1] turned out to be 21%; in test [2] it was 93%.
Turning to `O=C(CCCCCNC(=O)c1ccc2c(c1)CCC(=O)N2)NO`, the inhibition in test [1] is 21%; in test [2] it was 94%.
Turning to `CC1(C)CC(=O)Nc2c(F)cc(C(=O)NCCCCCCC(=O)NO)cc21`, the inhibition in test [1] was 57%; in test [2] it was 99%.
For `O=C(CCCCCCC(=O)Nc1ccc2oc(=O)ccc2c1)NO` the same measures were 46% and 98%.
Take `O=C(CCCCCC(=O)Nc1ccc2c(c1)CCC(=O)N2)NO`: the results for the inhibition in test [1] and in test [2] were 24% and 95%, respectively.
For the molecule `O=C(CCCCCOc1ccc2[nH]c(=O)ccc2c1)NO`, the inhibition turned out to be 19% in test [1] and 94% in test [2].
With `O=C(CCCCCCNS(=O)(=O)c1ccc2[nH]c(=O)ccc2c1)NO`, the inhibition in test [1] is 18%; in test [2], 94%.
For the molecule `O=C(CCCCCCNS(=O)(=O)c1ccc2c(c1)CCC(=O)N2)NO`, the inhibition in test [1] was 15%; in test [2] it was 94%.
On to `O=C(CCCOc1ccc2c(c1)CCC(=O)N2)NO`, for which the inhibition stood at 9% in test [1] and 65% in test [2].
On the same counts, the results for `CN1C(=O)CCc2cc(C(=O)NCCCCCCC(=O)NO)ccc21` are 51% and 99%.
`CCOC1=Nc2ccc(NC(=O)CCCCCCC(=O)NO)cc2C(C)(C)C1`: the values for the inhibition in test [1] and in test [2] were 42% and 97%, respectively.
Turning to `O=C(CCCCCOc1cccc2c1CCC(=O)N2)NO`, the inhibition in test [1] turned out to be 7%; in test [2] it was 86%.
Turning to `O=C(CCCCCOc1ccc2c(c1)CCC(=O)N2)NO`, the inhibition in test [1] was 13%; in test [2], 91%.
With `O=C(CCCCCCCC(=O)Nc1ccc2c(c1)CCC(=O)N2)NO`, the inhibition came out at 30% in test [1] and 97% in test [2].
For `CC1(C)CC(=O)Nc2c(F)cc(NC(=O)CCCCCCC(=O)NO)cc21` the same measures were 49% and 99%.
On the same counts, the results for `CC1(C)CC(=O)Nc2cc(C(=O)NCCCCCCC(=O)NO)ccc21` are 63% and 99%.
With `CC1(C)CC(=O)Nc2ccc(S(=O)(=O)NCCCCCCC(=O)NO)cc21`, the inhibition in test [1] stood at 17%; in test [2], 94%.
With `CC1(C)CC(=O)Nc2cc(C(=O)NCc3cccc(/C=C/C(=O)NO)c3)ccc21`, the inhibition in test [1] came out at 27%; in test [2], 96%.
Turning to `O=C(CCCCCOc1cccc2c1NC(=O)CC2)NO`, the inhibition was 4% in test [1] and 80% in test [2].
On the same counts, the results for `O=C(CCCCCCCNC(=O)c1ccc2c(c1)CCC(=O)N2)NO` are 40% and 98%.
On the same counts, the results for `CN1C(=O)CC(C)(C)c2cc(NC(=O)CCCCCCC(=O)NO)ccc21` are 55% and 98%.
For `O=C(CCCCCOc1ccc2c(c1)NC(=O)CC2)NO`, the values for the inhibition in test [1] and in test [2] were 13% and 91%, respectively.
With `O=C(CCCCCOc1cccc2ccc(=O)[nH]c12)NO`, the inhibition worked out at 7% in test [1] and 86% in test [2].
Take `CC1(C)CC(=O)Nc2ccc(OCCCCCC(=O)NO)cc21`: the figures for the inhibition in test [1] and in test [2] were 11% and 88%, respectively.
